From US12559495B2 (Agency for Science, Technology and Research, priority 2013, dated 2026)

What follows are compounds tested on HEK293-STF3A cells (assay: STF3A assay (luciferase reporter)). Conditions: Homo sapiens, 24 h, 1 day of treatment.
Type: cell-based
Protocol: HEK293-STF cell line was modified from Human embryonic kidney cell line HEK293 transfected with the STF reporter. HEK293-STF3A cell line was further modified from HEK293-STF cell line to express Wnt3A. This cell line was used to identify compounds that regulate either early or late signalling components of the Wnt pathway. L-Wnt3A (ATCC, #CRL-2647) cell line was used for providing Wnt3A conditioned media. The three cell lines were grown in DMEM (Dulbecco's Modified Eagle Medium) with 10% FBS (fetal bovine serum) incubated in 37° C. with 5% CO2. 2×10^4 HEK293-STF3A cells in 75 μl culture media were seeded in each well of white 96 well plates (Greiner #655098) and incubated overnight at 37° C. 25 μl serially diluted compound was added to the cells to give final concentration of 50 μM to 1.5 nM. After 1 day of treatment, 100 μl of Steady-Glo® Luciferase Assay reagent (#E2520, Promega) was added to each well and incubated for 10 minutes at room temperature. Luminescence was measured using Tecan Safire2® plate reader.

`Cn1c(=O)c2c(ncn2CC(=O)Nc2ccc(-c3cncs3)cc2)n(C)c1=O` [Compound 1, 2-(1,3-dimethyl-2,6-dioxo-2,3-dihydro-1H-purin-7(6H)-yl)-N-(4-(thiazol-5-yl)phenyl)acetamide] and `Cn1c(=O)c2c(ncn2CC(=O)Nc2ccc(-c3cccnn3)cc2)n(C)c1=O` [Compound 6, 2-(1,3-dimethyl-2,6-dioxo-2,3-dihydro-1H-purin-7(6H)-yl)-N-(4-(pyridazin-3-yl)phenyl)acetamide] cannot be ordered by IC50: < 100 nM for the first, < 1000 nM for the second.

`Cn1c(=O)c2c(ncn2CC(=O)Nc2ccc(-c3ccccc3)s2)n(C)c1=O` [Compound 2, 2-(1,3-dimethyl-2,6-dioxo-2,3-dihydro-1H-purin-7(6H)-yl)-N-(5-phenylthiophen-2-yl)acetamide] and `Cn1c(=O)c2c(ncn2CC(=O)Nc2cc(-c3ccccc3)cs2)n(C)c1=O` [Compound 3, 2-(1,3-dimethyl-2,6-dioxo-2,3-dihydro-1H-purin-7(6H)-yl)-N-(4-phenylthiophen-2-yl)acetamide] cannot be ordered by IC50: < 100 nM for the first, < 1000 nM for the second.

`Cn1c(=O)c2c(ncn2CC(=O)Nc2ccc(-n3ccnc3)cc2)n(C)c1=O` [Compound 4, N-(4-(1H-imidazol-1-yl)phenyl)-2-(1,3-dimethyl-2,6-dioxo-2,3-dihydro-1H-purin-7(6H)-yl)acetamide] and `Cn1c(=O)c2c(ncn2CC(=O)Nc2ccc(-c3ccncc3)cc2)n(C)c1=O` [Compound 10, 2-(1,3-dimethyl-2,6-dioxo-2,3-dihydro-1H-purin-7(6H)-yl)-N-(4-(pyridin-4-yl)phenyl)acetamide] cannot be ordered by IC50: < 1000 nM for the first, < 1000 nM for the second.

`Cn1c(=O)c2c(ncn2CC(=O)Nc2ccc(-c3ncccn3)cc2)n(C)c1=O` [Compound 8, 2-(1,3-dimethyl-2,6-dioxo-2,3-dihydro-1H-purin-7(6H)-yl)-N-(4-(pyrimidin-2-yl)phenyl)acetamide] and `Cn1c(=O)c2c(ncn2CC(=O)Nc2ccc(-c3ccccn3)cn2)n(C)c1=O` [Compound 9, N-(2,3′-bipyridin-6′-yl)-2-(1,3-dimethyl-2,6-dioxo-2,3-dihydro-1H-purin-7(6H)-yl)acetamide] cannot be ordered by IC50: < 5000 nM for the first, < 100 nM for the second.

`Cn1c(=O)c2c(ncn2CC(=O)Nc2ccc(-c3ccc(F)cc3)nn2)n(C)c1=O` [Compound 11, 2-(1,3-dimethyl-2,6-dioxo-2,3-dihydro-1H-purin-7(6H)-yl)-N-(6-(4-fluorophenyl)pyridazin-3-yl)acetamide] and `Cn1c(=O)c2c(ncn2CC(=O)Nc2ccc(-c3ccncc3)nn2)n(C)c1=O` [Compound 12, 2-(1,3-dimethyl-2,6-dioxo-2,3-dihydro-1H-purin-7(6H)-yl)-N-(6-(pyridin-4-yl)pyridazin-3-yl)acetamide] cannot be ordered by IC50: < 100 nM for the first, < 5000 nM for the second.

First: Cc1cc(-c2ccccc2)ccc1NC(=O)Cn1cnc2c1c(=O)n(C)c(=O)n2C [Compound 13, 2-(1,3-dimethyl-2,6-dioxo-2,3-dihydro-1H-purin-7(6H)-yl)-N-(3-methylbiphenyl-4-yl)acetamide]
Second: COc1cc(NC(=O)Cn2cnc3c2c(=O)n(C)c(=O)n3C)ccc1-c1ccccc1 [Compound 14, 2-(1,3-dimethyl-2,6-dioxo-2,3-dihydro-1H-purin-7(6H)-yl)-N-(2-methoxybiphenyl-4-yl)acetamide]
The IC50 of the first is higher: > 10000 nM for the first, < 1000 nM for the second. The second is the more potent here.

`C[C@H]1CN(C(=O)OC(C)(C)C)CCN1c1ccc(NC(=O)Cn2cnc3c2c(=O)n(C)c(=O)n3C)cc1` [Compound 15, (S)-tert-butyl 4-(4-(2-(1,3-dimethyl-2,6-dioxo-2,3-dihydro-1H-purin-7(6H)-yl)acetamido)phenyl)-3-methylpiperazine-1-carboxylate] and `C[C@@H]1CN(C(=O)OC(C)(C)C)CCN1c1ccc(NC(=O)Cn2cnc3c2c(=O)n(C)c(=O)n3C)cc1` [Compound 16, (R)-tert-butyl 4-(4-(2-(1,3-dimethyl-2,6-dioxo-2,3-dihydro-1H-purin-7(6H)-yl)acetamido)phenyl)-3-methylpiperazine-1-carboxylate] cannot be ordered by IC50: < 100 nM for the first, < 1000 nM for the second.
